Holding throughout (experiment): inhibition of tumour cell growth, NCI panel, 48 h
Assay [1] concerns MDA-MB-231 breast.
The test system of assay [2] is HS 578T breast.
The subject of assay [3] is MDA-MB-435.
Assay [4] deals with BT-549 breast.
The test system of assay [5] is MCF7 breast.
Assay [6] deals with PC-3 prostate.

The structures appear in SMILES notation. Values joined by “and” are separate entries in the source; they are usually repeats but may differ in a detail not shown here. Equal values may be shown once.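 Assay format: 96-well plates, 48-hour exposure. At the GI50, growth is halved. TGI: concentration producing complete growth inhibition.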

Consider `OCCN1CCCN(CCCN2c3ccccc3Sc3ccc(C(F)(F)F)cc32)CC1`, for which the GI50 in assay [1] was 2.31 µM; in assay [2], 2.04 µM; in assay [3] it was 1.67 µM; in assay [4], 5.93 µM; in assay [5], 1.6 µM. For the same molecule, the TGI in assay [1] worked out at 6.15 µM; in assay [2], 5.89 µM; in assay [3], 3.33 µM; in assay [4] it was 20.4 µM; in assay [5] it was 3.14 µM.

On to `O=c1ccc(=O)c2c1c1[nH]c3ccccc3c1c1c(=O)c3ccccc3c(=O)c21`, for which the TGI in assay [1], in assay [2], in assay [3] and in assay [6] was above 10 µM throughout.

Turning to `COc1ccc(C2=NOC3=c4ccccc4=CSC3=C2c2ccccc2)cc1`, the GI50 in assay [1] was 20.3 µM; in assay [2], 47.4 µM; in assay [3], 42.9 µM; in assay [6], 20.5 µM; in assay [4], 24 µM; in assay [5] it was 24.2 µM. Also, the TGI in assay [1] is 76 µM; in assay [2], above 100 µM; in assay [3], above 100 µM; in assay [6], above 100 µM; in assay [4] it was 77 µM; in assay [5] it was 62.9 µM.

Take `Clc1cc(Cl)cc(Nc2ccc3c(OCCCN4CCOCC4)cccc3n2)c1`: the GI50 in assay [1] was 1.8 µM; in assay [2], 2.51 µM; in assay [3], 1.8 µM; in assay [6], 1.94 µM; in assay [4], 6.93 µM; in assay [5], 1.74 µM. The TGI in assay [1] was determined as 3.94 µM; in assay [2], 8.14 µM; in assay [3], 3.71 µM; in assay [6], 4.69 µM; in assay [4], 20 µM; in assay [5], 3.48 µM.

As for `O=[N+]([O-])/C(=C/C=C/c1ccccc1)c1ccccc1`, the GI50 in assay [1] is 1.92 µM; in assay [2], 2.86 µM; in assay [3], 2.12 µM; in assay [6], 1.88 µM; in assay [4], 1.91 µM; in assay [5], 1.48 µM. Besides, the TGI in assay [1] was found to be 4.28 µM; in assay [2] it was 8.41 µM; in assay [3], 4.92 µM; in assay [6], 4.29 µM; in assay [4], 4.1 µM; in assay [5], 4.23 µM.

Take `Cc1ncc([N+](=O)[O-])n1CCOc1ccc(C(=O)/C=C/c2ccc(C(F)(F)F)cc2)cc1`: the GI50 in assay [1] is 3.53 µM; in assay [2] it was 5.2 µM; in assay [3], 3.56 µM; in assay [6], 2.25 µM; in assay [4], 4.64 µM; in assay [5], 1.7 µM. Moreover, the TGI was 15.5 µM in assay [1]; 33.3 µM in assay [2]; 13.9 µM in assay [3]; 12.2 µM in assay [6]; 17 µM in assay [4]; 4.01 µM in assay [5].

For the molecule `O=C(NCCNC1=CC(=O)c2nc3ccccc3c3ccnc1c23)c1cnccn1`, the GI50 was 58.5 µM in assay [1]; 32.7 µM in assay [2]; 14.5 µM in assay [3]; 13.1 µM in assay [6]; 44.8 µM in assay [4]; 21.4 µM in assay [5]. Moreover, the TGI in assay [1] is above 100 µM; in assay [2], above 100 µM; in assay [3] it was 63.2 µM; in assay [6], above 100 µM; in assay [4] it was above 100 µM; in assay [5], above 100 µM.

Take `C=C(c1ccc(C(=O)NCCCn2ccnc2)cc1)c1cc2c(cc1C)C(C)(C)CCC2(C)C`: the GI50 in assay [1] was 1.44 µM; in assay [3], 0.0734 µM; in assay [6], 0.158 µM; in assay [4] it was 3.14 µM; in assay [5], 1.25 µM. For the same molecule, the TGI in assay [1] was 9.78 µM; in assay [3], 16 µM; in assay [6], above 51.7 µM; in assay [4], 14.9 µM; in assay [5] it was 13.8 µM.

On to `CSc1ccc2c(c1)N(CCCN(C)C)c1ccccc1S2`, for which the TGI in assay [1] was found to be 26.3 µM; in assay [2], 28.7 µM; in assay [3] it was 17 µM; in assay [6], 23.8 µM; in assay [4], 29.2 µM; in assay [5], 26.1 µM.

For the molecule `Fc1nc(Sc2ncnc3nc[nH]c23)nc(-c2c3ccccc3c3sc4ccccc4n23)n1`, the TGI in assay [1], in assay [2], in assay [3], in assay [6], in assay [4] and in assay [5] was above 100 µM each time.

On to `COc1cc(COC(=O)N(C)[C@@H](Cc2ccccc2)C(=O)O)c([N+](=O)[O-])cc1OC`, for which the TGI in assay [2], in assay [3], in assay [6], in assay [4] and in assay [5] was above 100 µM in each case.

Consider `C#CCN(CCCOc1ccc(Cl)cc1Cl)CCCSC(=O)CCCCCN1/C(=C\C=C2/CCCC(/C=C/C3=[N+](CCCCCC(=O)[O-])c4ccccc4C3(C)C)=C2Cl)C(C)(C)c2ccccc21`, for which the GI50 was 1.94 µM in assay [1]; 1.47 µM in assay [2]; 1.46 µM in assay [3]; 1.69 µM in assay [6]; 1.05 µM in assay [4]; 1.24 µM in assay [5]. Besides, the TGI in assay [1] turned out to be 4.64 µM; in assay [2] it was 6.4 µM; in assay [3] it was 3.15 µM; in assay [6], 4.01 µM; in assay [4], 2.34 µM; in assay [5], 3.53 µM.

On to `CC[C@]1(O)C[C@@H]2CN(CCc3c([nH]c4ccccc34)[C@@](C(=O)OC)(c3cc4c(cc3OC)N(C)[C@H]3[C@@](O)(C(=O)OC)[C@H](OC(=O)CCCBr)[C@]5(CC)C=CCN6CC[C@]43[C@@H]65)C2)C1`, for which the GI50 is below 0.0185 µM in assay [2]; below 0.01 µM in assay [3]; 0.0141 µM in assay [6]; 0.0637 µM in assay [4]; below 0.01 µM in assay [5]. The TGI in assay [3] is below 0.01 µM; in assay [6] it was 14.3 µM; in assay [4] it was 10.1 µM; in assay [5] it was above 100 µM.

As to `c1ccc2[nH]c(-c3cscn3)nc2c1`, the TGI in assay [1], in assay [2], in assay [3], in assay [6], in assay [4] and in assay [5] was above 100 µM throughout.

As for `O=C(/C=C/c1ccccn1)c1ccccc1`, the GI50 in assay [1] was 9.92 µM; in assay [2], 12.5 µM; in assay [3], 7.85 µM; in assay [6], 4.22 µM; in assay [4], 14.4 µM; in assay [5], 2.07 µM. Besides, the TGI worked out at 23.8 µM in assay [1]; 39.4 µM in assay [2]; 24.9 µM in assay [3]; 17 µM in assay [6]; 27.6 µM in assay [4]; 8.46 µM in assay [5].

On to `COc1cc(/C=C/C(=O)/C=C/c2ccc(-n3ccnc3)cc2)ccc1O`, for which the GI50 in assay [1] was 3.47 µM; in assay [2], 2.91 µM; in assay [3] it was 2.21 µM; in assay [6], 2.19 µM; in assay [4] it was 1.87 µM; in assay [5] it was 0.827 µM. Also, the TGI was 13 µM in assay [1]; above 100 µM in assay [2]; 5.14 µM in assay [3]; 5.4 µM in assay [6]; 3.79 µM in assay [4]; 6.21 µM in assay [5].

`O=[N+]([O-])/C=C/c1cn(CCCCCCCCn2cc(/C=C/[N+](=O)[O-])c3ccccc32)c2ccccc12`: the TGI in assay [1], in assay [2], in assay [3] and in assay [6] was above 10 µM each time.

For the molecule `NCC[PH+](c1ccccc1)c1ccccc1.NCC[PH+](c1ccccc1)c1ccccc1.[Cl-].[Pt+4]`, the GI50 in assay [1] was above 100 µM; in assay [2], 99.6 µM; in assay [3], above 100 µM; in assay [6], above 100 µM; in assay [4] it was above 100 µM; in assay [5], above 100 µM. Further, the TGI in assay [1], in assay [2], in assay [3], in assay [6], in assay [4] and in assay [5] was above 100 µM throughout.

Turning to `CNc1ccc(CSc2ccc(C)cc2)cc1`, the GI50 in assay [1] was 2.45 µM; in assay [2], 56 µM; in assay [3], 13.1 µM; in assay [6], 13.2 µM; in assay [4] it was 3.08 µM; in assay [5], 21.2 µM. Also, the TGI was 11.7 µM in assay [1]; above 100 µM in assay [2]; above 100 µM in assay [3]; above 100 µM in assay [6]; 23 µM in assay [4]; above 100 µM in assay [5].

For `Cc1cc(=O)[nH]c2c1C(=O)c1c(C)cc(=O)n(C)c1C2=O`, the TGI in assay [1] came to 0.789 µM; in assay [2], 0.154 µM; in assay [3], 0.0275 µM; in assay [6], 0.391 µM; in assay [4] it was 0.0519 µM; in assay [5], 0.0356 µM.

Take `Cn1cc(C2=C(c3cccc([N+](=O)[O-])c3)C(=O)NC2=O)c2ccccc21`: the GI50 in assay [1] was 6.42 µM; in assay [2], 2.14 µM; in assay [3], 7.46 µM; in assay [6] it was 5.61 µM; in assay [4] it was 6.38 µM; in assay [5], 3.17 µM. Also, the TGI in assay [1] was above 25 µM; in assay [2], above 25 µM; in assay [3], above 25 µM; in assay [6], above 25 µM; in assay [4] it was above 23.2 µM; in assay [5], above 25 µM.

For the molecule `C=C1CCC2C(C)(CO)C(O)CCC2(C)C1C/C=C1\C(=O)OCC1O` (centres undefined), the TGI is 58.9 µM in assay [1]; above 100 µM in assay [2]; 22.9 µM in assay [3]; 71.6 µM in assay [6]; 20.3 µM in assay [4]; 31.3 µM in assay [5].

As to `COc1ccc(N=C2C(=O)Nc3ccc(Br)cc32)cc1`, the TGI is 35.3 µM in assay [1]; above 100 µM in assay [2]; 27.4 µM in assay [3]; above 100 µM in assay [6]; 35.2 µM in assay [5].

In the case of `COc1cc(-c2ccc[nH]2)[nH]c1/C=C1\N=C(C)C(C(=O)NC(C)C)=C1C`, the GI50 in assay [1] is 2.76 µM; in assay [2] it was 2.84 µM; in assay [3], 4.51 µM; in assay [6] it was 4.67 µM; in assay [4], 4.62 µM; in assay [5] it was 2.82 µM. Also, the TGI is 12.9 µM in assay [1]; 10.5 µM in assay [2]; 19.5 µM in assay [3]; 19.3 µM in assay [6]; 18.9 µM in assay [4]; 12.3 µM in assay [5].

Turning to `CC(C)(C)c1cnc(CSc2cnc(NC(=O)C3CCNCC3)s2)o1`, the GI50 in assay [1] is 0.214 µM and 0.234 µM; in assay [2] it was 0.334 µM and 0.226 µM; in assay [3], 0.189 µM and 0.232 µM; in assay [6] it was 0.21 µM and 0.19 µM; in assay [4], 0.304 µM and 0.298 µM; in assay [5] it was 0.0522 µM and 0.0505 µM. Also, the TGI in assay [1] is 5.34 µM and > 6.43 µM; in assay [2], above 2.64 µM; in assay [3], 0.905 µM and 1.07 µM; in assay [6], 2.81 µM and > 9 µM; in assay [4] it was 2.83 µM and 2.45 µM; in assay [5], above 53.3 µM.

In the case of `COc1ccc(-c2nn(-c3cccc(Cl)c3)cc2-c2c(C#N)c(=O)n3[nH]c(-c4ccc(C)o4)nc3c2C#N)cc1`, the GI50 in assay [1] is 4.7 µM; in assay [2] it was 2.95 µM; in assay [3] it was 4.44 µM; in assay [6], 2.25 µM; in assay [4], 4.19 µM; in assay [5], 1.75 µM. Also, the TGI is 36.9 µM in assay [1]; above 50 µM in assay [2]; 30.1 µM in assay [3]; above 50 µM in assay [6]; 43.5 µM in assay [4]; above 50 µM in assay [5].

As for `N#CC(C#N)=C/C=C/c1ccccc1[N+](=O)[O-]`, the TGI in assay [1] was 7.01 µM; in assay [2] it was above 10 µM; in assay [6], above 10 µM; in assay [5], above 10 µM.

`CC(=O)Nc1ccc2c(c1)[nH]c(=O)c1cc(Cl)ccc12`: the TGI in assay [1] was above 100 µM; in assay [2], above 100 µM; in assay [3] it was above 100 µM; in assay [4] it was above 100 µM; in assay [5], 77.7 µM.
